Values joined by “and” are separate entries in the source; they are usually repeats but may differ in a detail not shown here. Identical values can stand only once. Like-named read-outs stand apart in the source and are kept apart here. Values belong to the compound of their own block, whether it stands above or below them.
How the values were obtained:
[1] = test system: LTB4 production by neutrophils; set-up: method as in PMID 24591641; conditions: cited from earlier work
LTA4H (PGP degradation) = test system: LTA4H (PGP degradation); set-up: method as in PMID 24591641; conditions: concentration of 100 μM; 5 μg/ml LTA4H; cited from earlier work
[2] = biological target: T1, recombinant human LTA4H (aminopeptidase, PGP substrate) (Homo sapiens, UniProt P09960); experiment: LTA4H aminopeptidase activity: PGP degradation by recombinant human LTA4H; format: biochemical
T1 construct: purchased Cayman Chemicals
T1 sequence (P09960 1-611): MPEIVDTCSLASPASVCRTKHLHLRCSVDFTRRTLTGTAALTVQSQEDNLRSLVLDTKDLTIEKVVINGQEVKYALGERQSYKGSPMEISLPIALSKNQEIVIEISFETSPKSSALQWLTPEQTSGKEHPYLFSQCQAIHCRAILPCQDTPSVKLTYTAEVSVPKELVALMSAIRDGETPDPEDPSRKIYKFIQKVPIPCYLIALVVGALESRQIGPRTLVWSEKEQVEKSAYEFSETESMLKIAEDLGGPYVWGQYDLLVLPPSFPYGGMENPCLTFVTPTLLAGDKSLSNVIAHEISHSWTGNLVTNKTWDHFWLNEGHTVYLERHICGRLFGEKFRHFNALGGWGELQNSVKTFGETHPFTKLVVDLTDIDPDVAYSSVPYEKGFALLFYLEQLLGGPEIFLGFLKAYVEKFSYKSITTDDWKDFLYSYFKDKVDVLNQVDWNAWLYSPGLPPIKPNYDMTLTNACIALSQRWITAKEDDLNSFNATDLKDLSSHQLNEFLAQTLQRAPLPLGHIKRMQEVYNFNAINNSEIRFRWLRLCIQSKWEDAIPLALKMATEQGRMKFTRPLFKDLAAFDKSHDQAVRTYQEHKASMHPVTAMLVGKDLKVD
Experimental: For peptide quantification in serum, PGP and AcPGP were measured using a MDS Sciex API-4000 spectrometer (Applied Biosystems, Foster City, CA) equipped with a Shimadzu HPLC (Columbia, MD). For peptide quantification from degradation experiments, PGP and AcPGP were measured using a Thermo Accela Pump and Autosampler coupled to a Thermo TSQ Quantum Access. […] Peak area was measured, and PGP/AcPGP peptide concentrations were calculated using a relative standard curve method as previously described.
Mouse serum (diluted 1/10 in PBS) or recombinant human LTA4H (0.1 μg/ml; Cayman Chemicals, Michigan, USA) were incubated with 0.4 mM PGP at 37 °C in 5% CO2 for varying periods of time. Concentrations of PGP remaining were subsequently quantified by ESI-LC/MS/MS (as discussed above) by comparison with PGP standards. The percentage of peptide degraded was determined relative to control samples of 0.4 mM PGP alone. PGP degradation was also assessed by measurement of free proline released and its ensuing reaction with Ninhydrin (as discussed below). Test compounds were assayed in a blinded manner by an investigator during determination of the effect on LTA4H aminopeptidase activity.
To assess free proline liberated, aliquots from PGP degradation experiments were diluted 1 in 10 in PBS (to a final volume of 250 μl). Glacial acetic acid (250 μl) was then added, followed by 250 μl of ninhydrin solution (25 mg/ml in acetic acid/6 M phosphoric acid; heated at 70 °C to dissolve). The reaction mixture was heated at 100 °C for 60 minutes, allowed to cool to room temperature and the proline containing fraction extracted with 500 μl of toluene and optical density measured at 520 nm.

[3] = biological target: T2, LTA4H epoxide hydrolase activity (LTB4 generation) (Mus musculus, UniProt P24527); experiment: LTA4H epoxide hydrolase activity: LTB4 generation by A23187-treated murine bone marrow neutrophils (EIA); format: cell-based; conditions: for IC50: LTB4 generation, murine neutrophils, read-out: Epoxide Hydrolase IC50 ± SEM
T2 construct: endogenous in cells; host or cells: murine bone marrow neutrophils
T2 sequence (P24527 1-611): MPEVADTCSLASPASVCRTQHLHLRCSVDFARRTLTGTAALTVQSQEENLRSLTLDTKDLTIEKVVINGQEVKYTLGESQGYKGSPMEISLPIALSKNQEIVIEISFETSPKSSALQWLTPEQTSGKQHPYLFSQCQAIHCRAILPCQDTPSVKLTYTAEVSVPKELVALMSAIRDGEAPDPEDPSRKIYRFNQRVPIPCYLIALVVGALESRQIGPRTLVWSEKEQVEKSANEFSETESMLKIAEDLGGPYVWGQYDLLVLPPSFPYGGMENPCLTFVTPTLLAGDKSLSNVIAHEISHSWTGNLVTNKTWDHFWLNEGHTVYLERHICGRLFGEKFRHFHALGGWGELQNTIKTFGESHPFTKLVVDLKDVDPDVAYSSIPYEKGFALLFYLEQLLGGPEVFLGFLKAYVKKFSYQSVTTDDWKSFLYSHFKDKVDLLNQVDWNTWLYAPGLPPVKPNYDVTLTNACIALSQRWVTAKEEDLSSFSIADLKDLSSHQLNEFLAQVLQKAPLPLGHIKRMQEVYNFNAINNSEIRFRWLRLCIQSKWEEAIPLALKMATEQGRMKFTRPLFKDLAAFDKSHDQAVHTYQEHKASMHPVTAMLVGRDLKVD
Experimental: To isolate murine bone marrow neutrophils, the femur and the tibia from both hind legs were removed and freed of soft tissue attachments, and the extreme distal tip of each extremity cut off. HBSS containing 15 mM EDTA and 30 mM HEPES was forced through the bone with a syringe. After dispersing cell clumps and passage through a […] sieve (BD labware, New Jersey), red blood cells were lysed by resuspending pellets in ACK buffer (for 3 minutes at room temperature) before centrifugation (800 × g, 5 min) and washing with HBSS. The cell suspension was centrifuged (800 × g, 5 min, 4 °C) and resuspended in RPMI.
(§1) 1% DMSO was used as a control. Cells were incubated for 20 minutes at 37 °C, and the reaction was terminated by centrifugation (600 × g, 5 min, 4 °C). Supernatants were removed and stored at −80 °C for subsequent LTB4 analysis. The concentration of LTB4 generated in the epoxide hydrolase activity assay was assayed using an EIA, according to manufacturer’s directions (R&D systems, Minneapolis, MN). Test compounds were assayed in a blinded manner by an investigator during determination of effect on LTA4H epoxide hydrolase activity.

[4] = Mouse liver microsome stability; format: in vitro ADME; conditions: liver microsomes
Excerpt: (§2) ARM1 (4-(4-benzylphenyl)-1,3-thiazole-2-amine), compound 11 (7-hydroxy-3-(4-hydroxyphenyl)-4H-chromen-4-one) and compound 13 (7-hydroxy-3-phenyl-4H-chromen-4-one) were all purchased from VitasMLab (Kowloon, Hong Kong). […] All other compounds were custom synthesized by Peakdale Molecular as described in Supplementary Information. ADMET (absorption, distribution, metabolism, and excretion – toxicity) studies were also outsourced to Peakdale Molecular.

[5] = Human plasma protein binding; format: in vitro ADME
Excerpt: as §2

[6] = Mouse plasma protein binding; format: in vitro ADME
Excerpt: as §2

logD pH7.4 = format: physicochemical; conditions: pH 7.4; read-out: logDpH7.4
Excerpt: as §2

[7] = biological target: T3, LTA4H epoxide hydrolase activity (LTB4 generation) (Homo sapiens, UniProt P09960); experiment: LTB4 generation by human blood-derived neutrophils; format: cell-based; conditions: preliminary data, blood-derived neutrophils from two distinct donors
T3 construct: endogenous in cells; host or cells: human peripheral blood neutrophils from healthy volunteers
T3 sequence (P09960 1-611): T1 sequence (P09960 1-611)
Experimental: To isolate human neutrophils, peripheral blood was taken from healthy volunteers following informed consent and according to an approved protocol. Neutrophils were subsequently isolated using the MACSxpress™ Neutrophil Isolation Kit (Miltenyi Biotec, UK).
as §1, with “1 × 10^5 murine bone marrow-derived neutrophils or human blood-derived neutrophils (compound 9 only) in 100 μl of RPMI were treated with A23187 at a final concentration of 20 μg/ml. 1%” for “1%”

[8] = Human liver microsome stability; format: in vitro ADME; conditions: liver microsomes
Excerpt: as §2

[9] = set-up: method as in PMID 12540402; conditions: metabolic stability reported; cited from earlier work

Compound: Nc1nc(-c2ccc(Cc3ccccc3)cc2)cs1 [ARM1, 4-(4-benzylphenyl)-1,3-thiazole-2-amine, reference compound]
IC50 [1]: 500 nM and ~500 nM
inhibition of PGP degradation at 100 μM (LTA4H (PGP degradation)): no inhibition
IC50 ([2]; PGP degradation, recombinant LTA4H, Table 1, read-out: Aminopeptidase IC50 ± SEM): 9110 nM
IC50 ([2]; read-out: IC50 for inhibiting PGP degradation): ~9100 nM
IC50 ([3]; Table 1): 600 ± 66.2 nM

microsomal CLint [4]: 466 ± 100 µL/min/mg
half-life ([4]; read-out: Mouse liver microsomes t1/2): 1.5 min
fraction unbound [5]: 0.0225
IC50 ([2]; PGP degradation, Table 2, read-out: Aminopeptidase IC50 ± SEM): > 100000 nM
inhibition of PGP degradation at 100 μM ([2]; concentration of 100 μM): no inhibition
fraction unbound [6]: 0.0213
IC50 ([3]; Table 2): 500 ± 40 nM
augmentation of LTB4 inhibitory capacity ([3]; relocation of hydroxyl to R3-position, relative to compound 6): 10 fold
logD (logD pH7.4): 2.25 ± 0.1
IC50 [7]: 2400 nM
microsomal CLint [8]: 59.5 µL/min/mg
half-life ([8]; read-out: Human liver microsomes t1/2): 11.7 min
Compound: COc1cc(O)cc(CCc2ccccc2O)c1 [Compound 9]

Compound: O=c1c(-c2ccc(O)cc2)coc2cc(O)ccc12 [Compound 11, 7-hydroxy-3-(4-hydroxyphenyl)-4H-chromen-4-one]
t1/2 [9]: 465 ± 21.6 min
IC50 ([2]; PGP degradation, Table 3, read-out: Aminopeptidase IC50 ± SEM): > 100000 nM
IC50 ([3]; Table 3): 15000 ± 2300 nM
